Values quoted from earlier work in patent publication US20190336443A1 (Navinta III Inc, priority 2018, published 2019).

How the values were obtained:
[1] = all animal species with adequate studies (rodents and rabbits)
[2] = pH sensitive

NC(=O)c1ncn([C@@H]2O[C@H](CO)[C@@H](O)[C@H]2O)n1 [Ribavirin, 1-beta-D-ribofuranosyl-1H-1,2,4-triazole-3-carboxamide]
teratogenic and/or embryocidal potential [1]: significant teratogenic and/or embryocidal potential
degradation in a liquid formulation [2]: readily degraded by hydrolysis
solubility in ethanol: slight solubility
